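These data come from cells grown in 96-well plates and exposed to compound for 48 hours at five concentrations. GI50 marks 50% less growth.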 Activity calls are given as the source filed them. Rule as the data show it: active = GI50 up to about 1.1 µM and inactive = higher.
Legend:
Assay in all cases: DTP human tumour cell line panel, 48 h
786-0 = tested on: 786-0
A549 = tested on: A549
CCRF-CEM = tested on: CCRF-CEM
HCT-116 = tested on: HCT-116
HL-60 = tested on: HL-60
HOP-62 = tested on: HOP-62
HOP-92 = tested on: HOP-92
HT-29 = tested on: HT-29
MOLT-4 = tested on: MOLT-4
OVCAR-3 = tested on: OVCAR-3
OVCAR-4 = tested on: OVCAR-4
OVCAR-8 = tested on: OVCAR-8
SF-295 = tested on: SF-295
SF-539 = tested on: SF-539
SR = tested on: SR
TK-10 = tested on: TK-10
U-251 = tested on: U-251
UACC-257 = tested on: UACC-257
UACC-62 = tested on: UACC-62
UO-31 = tested on: UO-31

Measured: GI50

O=C1NNC(=O)c2ccccc2SSc2ccccc2C(=O)NNC(=O)c2ccccc2SSc2ccccc21
inactive: 786-0 13.5 µM | A549 19.5 µM | CCRF-CEM 1.26 µM | HCT-116 7.76 µM | HL-60 6.7 µM | HOP-62 21.4 µM | HOP-92 > 50 µM | HT-29 16.7 µM | MOLT-4 2.94 µM | OVCAR-3 16.9 µM | OVCAR-4 33.7 µM | OVCAR-8 12.5 µM | SF-295 2.45 µM | SF-539 17.3 µM | SR 2.55 µM | TK-10 36.9 µM | U-251 17.3 µM | UACC-257 19.9 µM | UACC-62 16.7 µM | UO-31 3.39 µM

Cc1cc(C)nc(NS(=O)(=O)c2ccc(NC(=O)c3cccc4c(=O)c5ccccc5[nH]c34)cc2)n1
inactive: 786-0 18.7 µM | A549 22.7 µM | CCRF-CEM 13 µM | HCT-116 17 µM | HL-60 16.6 µM | HOP-62 20.1 µM | HOP-92 20 µM | HT-29 21.3 µM | MOLT-4 30.5 µM | OVCAR-3 19.5 µM | OVCAR-4 18.5 µM | OVCAR-8 19.2 µM | SF-295 19.8 µM | SF-539 18.4 µM | SR 24.8 µM | TK-10 25.9 µM | U-251 16.5 µM | UACC-257 17.9 µM | UACC-62 20 µM | UO-31 22.2 µM

COC(=O)c1cc(-c2ccc(OC)c(OC)c2)oc1-c1ccc(OC)c(OC)c1
inactive: 786-0 37.3 µM | A549 44 µM | CCRF-CEM > 100 µM | HCT-116 32.4 µM | HL-60 64.7 µM | HOP-62 35.7 µM | HOP-92 13.4 µM | HT-29 35.8 µM | MOLT-4 32.7 µM | OVCAR-3 42.5 µM | OVCAR-4 62.5 µM | OVCAR-8 44.6 µM | SF-295 23.8 µM | SF-539 21.2 µM | SR 28.6 µM | TK-10 53.8 µM | U-251 30.6 µM | UACC-257 37.6 µM | UACC-62 70.1 µM | UO-31 35.6 µM

CC(N)C(C)c1ccccc1 (stereo not given)
inactive: 786-0 > 100 µM | A549 > 100 µM | CCRF-CEM > 100 µM | HCT-116 > 100 µM | HL-60 > 100 µM | HOP-62 > 100 µM | HOP-92 > 100 µM | HT-29 > 100 µM | MOLT-4 > 100 µM | OVCAR-3 > 100 µM | OVCAR-4 > 100 µM | OVCAR-8 > 100 µM | SF-295 > 100 µM | SF-539 > 100 µM | SR > 100 µM | TK-10 > 100 µM | U-251 > 100 µM | UACC-257 > 100 µM | UACC-62 > 100 µM | UO-31 > 100 µM

CCOP(=O)(OCC)C(Nc1ccc(Br)cc1)c1cccc([N+](=O)[O-])c1 (stereo not given)
inactive: 786-0 20.4 µM | A549 15.8 µM | CCRF-CEM 17.8 µM | HCT-116 12.7 µM | HL-60 20 µM | HOP-62 17.5 µM | HOP-92 20.7 µM | HT-29 16.8 µM | MOLT-4 17 µM | OVCAR-3 16.2 µM | OVCAR-4 21.4 µM | OVCAR-8 24.6 µM | SF-295 12.9 µM | SF-539 19.6 µM | SR 18.1 µM | TK-10 30.5 µM | U-251 18.2 µM | UACC-257 > 10 µM | UACC-62 14.7 µM | UO-31 10.8 µM

COC(=O)C1=CC(=O)C(C(=O)Nc2ccc(OC)cc2)C(c2ccccc2)O1 (stereo not given)
inactive: 786-0 20.7 µM | A549 28.1 µM | CCRF-CEM > 77.3 µM | HCT-116 28.6 µM | HL-60 > 84.3 µM | HOP-62 24 µM | HOP-92 24 µM | HT-29 > 66.5 µM | MOLT-4 > 74.5 µM | OVCAR-3 22.7 µM | OVCAR-4 28.4 µM | OVCAR-8 34.6 µM | SF-295 24 µM | SF-539 21.4 µM | SR 44.5 µM | TK-10 31.6 µM | U-251 21 µM | UACC-257 72.8 µM | UACC-62 32.2 µM | UO-31 30.5 µM

COc1ccc(NC(=S)N/N=C2\C(=O)Nc3ccccc32)cc1
inactive: 786-0 7.55 µM | A549 5.52 µM | CCRF-CEM 2.43 µM | HCT-116 5.14 µM | HL-60 2.49 µM | HOP-62 12.2 µM | HOP-92 44 µM | HT-29 7.96 µM | MOLT-4 4.93 µM | OVCAR-3 28.8 µM | OVCAR-4 9.77 µM | OVCAR-8 7.55 µM | SF-295 3.47 µM | SF-539 6.41 µM | SR 8.51 µM | TK-10 22 µM | U-251 5.22 µM | UACC-257 47 µM | UACC-62 6.24 µM | UO-31 5.18 µM

Reference: ChEMBL document CHEMBL1201862, “PubChem BioAssay data set” (2004)
